We go through 14 molecules from PubChem BioAssay (NCI).

Structures are written as SMILES. Several values for one entry are separate records, joined by “and”; a condition that tells them apart may be missing. Equal entries are not always repeated.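 Five compound concentrations were applied to cells in 96-well plates for 48 hours; endpoints were derived by simple linear interpolation of the resulting dose-response curve. GI50: concentration for 50% inhibition of growth. At the TGI there is no net growth.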

Some test systems named below: A498 renal; ACHN renal; COLO 205 colon; HCC-2998 colon; IGROV1 ovarian; M14 melanoma; MALME-3M melanoma; MOLT-4 leukemia; NCI-H460 lung; SK-MEL-28 melanoma.
Common to all, as to experiment: NCI tumour cell line growth inhibition, 48 h

Take `CN1c2ccccc2N(C)C23N(C)c4ccccc4N(C)C12N(C)c1ccccc1N3C` (configuration not stated): the TGI in the test with A498 renal, in the test with ACHN renal, with COLO 205 colon, in the test with HCC-2998 colon, in the test on IGROV1 ovarian and with M14 melanoma was more than 100 µM in each case. For the same molecule, the TGI in the test with MALME-3M melanoma, in the test with MOLT-4 leukemia, in the test with NCI-H460 lung and in the test on SK-MEL-28 melanoma was more than 100 µM each time.

As for `CC1(C)[C@@H](OC(N)=O)[C@H]2O[C@H]2[C@]2(CO)[C@H]3CC[C@]4(C)[C@@H](c5ccc(=O)oc5)[C@@H](Cl)C[C@]4(O)C3=CC[C@@H]12`, the GI50 in the test on A498 renal is 0.0144 µM; in the test with ACHN renal, 0.00515 µM; with COLO 205 colon it was 0.0109 µM; in the test with HCC-2998 colon it was 0.0151 µM; in the test on IGROV1 ovarian it was 0.0116 µM; in the test on M14 melanoma, 0.0161 µM. Moreover, the GI50 in the test on MALME-3M melanoma is 0.00616 µM; in the test with MOLT-4 leukemia it was 0.00519 µM; in the test with NCI-H460 lung, 0.00468 µM; in the test with SK-MEL-28 melanoma, 0.016 µM. The TGI with A498 renal came out at 0.0748 µM; in the test on ACHN renal, 0.0118 µM; in the test on COLO 205 colon, 0.0506 µM; in the test on HCC-2998 colon, 0.107 µM; in the test with IGROV1 ovarian it was 0.0938 µM; with M14 melanoma it was 0.0558 µM. For the same molecule, the TGI was 0.0149 µM in the test with MALME-3M melanoma, 0.0144 µM in the test on MOLT-4 leukemia, 0.00997 µM in the test with NCI-H460 lung and 0.0902 µM in the test with SK-MEL-28 melanoma.

Take `CC#CC(=O)SCCNC(=O)CC`: the TGI in the test with A498 renal, in the test with ACHN renal, with COLO 205 colon, in the test with HCC-2998 colon, in the test on IGROV1 ovarian and in the test with M14 melanoma was more than 10 µM throughout. Also, the TGI in the test with MALME-3M melanoma is more than 10 µM; in the test with MOLT-4 leukemia, more than 8.86 µM; in the test with NCI-H460 lung it was more than 10 µM; in the test with SK-MEL-28 melanoma, more than 10 µM.

For `COc1cc(C2C(Cl)C(=O)N2NC(=O)c2ccc(N)cc2)ccc1O` (configuration not stated), the TGI in the test with A498 renal is more than 100 µM; in the test on ACHN renal it was more than 100 µM; with COLO 205 colon, 36.9 µM; in the test on HCC-2998 colon, 38 µM; in the test on IGROV1 ovarian, more than 100 µM; with M14 melanoma, more than 100 µM. Also, the TGI in the test with MALME-3M melanoma was 32.1 µM; in the test on MOLT-4 leukemia it was 60.3 µM; in the test with NCI-H460 lung it was more than 100 µM; with SK-MEL-28 melanoma, more than 100 µM.

Turning to `O=[N+]([O-])c1cccc([As]=[As]c2cccc([N+](=O)[O-])c2)c1` (configuration not stated), the GI50 in the test with A498 renal was 0.0835 µM; in the test with ACHN renal, 0.111 µM; with COLO 205 colon it was 0.0663 µM; in the test with HCC-2998 colon it was 0.13 µM; in the test on IGROV1 ovarian, 0.0587 µM; in the test with M14 melanoma, 0.136 µM. The GI50 in the test with MALME-3M melanoma is 0.0562 µM; in the test on MOLT-4 leukemia it was 0.104 µM; with NCI-H460 lung, 0.225 µM; in the test on SK-MEL-28 melanoma, 0.136 µM. The TGI with A498 renal was determined as 0.231 µM; in the test with ACHN renal, 0.242 µM; in the test on COLO 205 colon, 0.18 µM; in the test on HCC-2998 colon, 0.275 µM; in the test on IGROV1 ovarian, 0.211 µM; in the test on M14 melanoma, 0.287 µM. Moreover, the TGI in the test with MALME-3M melanoma was 0.155 µM; in the test with MOLT-4 leukemia it was 0.353 µM; in the test with NCI-H460 lung, 0.5 µM; in the test on SK-MEL-28 melanoma, 0.305 µM.

`O=C(Nc1ccc(Cl)cc1)Nc1ccc(Nc2nncc3ccccc23)cc1`: the GI50 is 3.79 µM in the test with A498 renal; 1.12 µM with ACHN renal; 2.77 µM in the test with COLO 205 colon; 3.26 µM in the test with HCC-2998 colon; 2.52 µM in the test with IGROV1 ovarian; 1.52 µM with M14 melanoma. For the same molecule, the GI50 was 3.94 µM in the test on MALME-3M melanoma, 2.09 µM in the test on MOLT-4 leukemia, 2.91 µM in the test with NCI-H460 lung and 3.04 µM with SK-MEL-28 melanoma. In addition, the TGI in the test on A498 renal was determined as 18.8 µM; with ACHN renal, 7.12 µM; in the test with COLO 205 colon, 9.58 µM; in the test on HCC-2998 colon, 19.8 µM; in the test on IGROV1 ovarian it was 30.7 µM; in the test on M14 melanoma it was 11.5 µM. Also, the TGI in the test with MALME-3M melanoma was 16.5 µM; with MOLT-4 leukemia it was 6.36 µM; in the test with NCI-H460 lung, 11.9 µM; with SK-MEL-28 melanoma, 12.8 µM.

Regarding `COC(=O)c1cc2ccc(OC(C)=O)c(OC(C)=O)c2cn1`, the TGI in the test with A498 renal was 48.7 µM; with ACHN renal, 31.5 µM; in the test with COLO 205 colon, 36.3 µM; in the test on HCC-2998 colon it was 44.6 µM; in the test on IGROV1 ovarian it was 33.9 µM; with M14 melanoma, 34.3 µM. Also, the TGI in the test with MALME-3M melanoma was 24 µM; with MOLT-4 leukemia it was 6.54 µM and 4.28 µM; in the test on NCI-H460 lung it was 39.7 µM; in the test on SK-MEL-28 melanoma, 34.3 µM. The GI50 in the test on MALME-3M melanoma was 11.5 µM; with MOLT-4 leukemia, 2.22 µM.

`Clc1nc(Cl)c2ncn(C/C=C/COc3cccc(OC/C=C/Cn4cnc5c(Cl)nc(Cl)nc54)c3)c2n1`: the GI50 was more than 100 µM with A498 renal; more than 100 µM in the test with ACHN renal; more than 100 µM in the test with COLO 205 colon; 42.1 µM in the test with HCC-2998 colon; more than 100 µM in the test with IGROV1 ovarian; 32.7 µM in the test on M14 melanoma. In addition, the GI50 with MALME-3M melanoma is more than 100 µM; in the test on MOLT-4 leukemia it was 26.5 µM; in the test on NCI-H460 lung it was more than 100 µM; in the test with SK-MEL-28 melanoma, more than 100 µM. For the same molecule, the TGI with A498 renal, with ACHN renal, in the test on COLO 205 colon, in the test on HCC-2998 colon, with IGROV1 ovarian and with M14 melanoma was more than 100 µM each time. The TGI in the test with MALME-3M melanoma, with MOLT-4 leukemia, with NCI-H460 lung and in the test with SK-MEL-28 melanoma was more than 100 µM in each case.

As to `CC(=O)C1C(=O)C(=O)N(c2ccccc2C(C)C)C1=O` (configuration not stated), the TGI in the test on A498 renal, with ACHN renal, in the test on COLO 205 colon, with HCC-2998 colon, in the test with IGROV1 ovarian and in the test on M14 melanoma was more than 100 µM each time. Further, the TGI in the test with MALME-3M melanoma, with MOLT-4 leukemia, in the test on NCI-H460 lung and in the test with SK-MEL-28 melanoma was more than 100 µM in each case.

In the case of `C/C(CC(=O)Nc1ccc(Cl)cc1)=N\NC(N)=S`, the TGI in the test with A498 renal is more than 100 µM; with ACHN renal it was more than 100 µM; in the test on COLO 205 colon it was more than 100 µM; with HCC-2998 colon, 75.7 µM; with IGROV1 ovarian, more than 100 µM; in the test on M14 melanoma, more than 100 µM. The TGI with MALME-3M melanoma, in the test on MOLT-4 leukemia, in the test on NCI-H460 lung and in the test with SK-MEL-28 melanoma was more than 100 µM in each case.

As for `COc1ccc(OC)c2c1C(=O)C1CC1(Br)C2=O` (configuration not stated), the TGI in the test with A498 renal, with ACHN renal, in the test with COLO 205 colon, in the test with HCC-2998 colon, in the test with IGROV1 ovarian and in the test on M14 melanoma was more than 100 µM each time. Also, the TGI in the test on MALME-3M melanoma, in the test with MOLT-4 leukemia, in the test on NCI-H460 lung and with SK-MEL-28 melanoma was more than 100 µM throughout.

Consider `Cc1c2c(nn1C)CSCc1cc(n(C)n1)CSc1cc(c3ccccc3c1)OCCCc1c(C(=O)O)n(C)c3c-2c(Cl)ccc13`, for which the GI50 with A498 renal is 4.01 µM; in the test on ACHN renal it was 4.1 µM; in the test with COLO 205 colon it was 3.36 µM; in the test with HCC-2998 colon, 3.15 µM; with IGROV1 ovarian, 3.99 µM; with M14 melanoma, 2.68 µM. Also, the GI50 in the test with MALME-3M melanoma was 2.84 µM; in the test with MOLT-4 leukemia, 0.448 µM; with NCI-H460 lung, 3.23 µM; with SK-MEL-28 melanoma it was 3.61 µM. For the same molecule, the TGI came to 19 µM in the test on A498 renal; 14 µM in the test on ACHN renal; 12.2 µM with COLO 205 colon; 13.4 µM in the test with HCC-2998 colon; 14.5 µM in the test on IGROV1 ovarian; 11.1 µM in the test on M14 melanoma. Further, the TGI is 9.87 µM in the test with MALME-3M melanoma, 4.4 µM with MOLT-4 leukemia, 10.7 µM with NCI-H460 lung and 12.9 µM in the test with SK-MEL-28 melanoma.

With `COc1ccc(/C=C\c2cc(OC)c(OC)c(OC)c2)cc1OC`, the TGI with A498 renal is 40.4 µM; with ACHN renal it was 40.4 µM and 85 µM; in the test on COLO 205 colon it was 0.171 µM and 0.662 µM; in the test on HCC-2998 colon it was 0.579 µM and 0.372 µM; in the test with IGROV1 ovarian, 40.4 µM and 21.5 µM; in the test on M14 melanoma, 40.4 µM and 18.1 µM. The TGI was 91.6 µM in the test on MALME-3M melanoma; 28 µM and 14.6 µM in the test with MOLT-4 leukemia; 40.4 µM and 16.7 µM in the test on NCI-H460 lung; more than 100 µM with SK-MEL-28 melanoma. For the same molecule, the GI50 in the test on ACHN renal is 0.763 µM; with COLO 205 colon, 0.11 µM; with IGROV1 ovarian it was 0.0537 µM; in the test on M14 melanoma, 0.0603 µM; in the test with NCI-H460 lung, 0.181 µM.

`COC(=O)C1=C(c2cc(OC)c(OC)c(OC)c2)OC(c2ccc(OC)c(OC)c2)C1` (configuration not stated): the TGI in the test with A498 renal is 69.3 µM; in the test on ACHN renal it was more than 100 µM; with COLO 205 colon, 42.6 µM; in the test with HCC-2998 colon it was more than 100 µM; in the test on IGROV1 ovarian it was more than 100 µM; with M14 melanoma, more than 100 µM. Further, the TGI in the test with MALME-3M melanoma is more than 100 µM; in the test with MOLT-4 leukemia, 51.2 µM; in the test with NCI-H460 lung, more than 100 µM; in the test with SK-MEL-28 melanoma it was more than 100 µM.
